In PubChem BioAssay AID2060912 (Molecular Pharmacology Branch, DTP, NCI, 2025):

Tested on: HUVEC/MSC spheroids viability
Assay: Human HUVEC/MSC cell line growth inhibition [KRAS2];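 for viability, T/C: percent of DMSO vehicle control luminescence so 100% = untreated viability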
Settings: for IC50: curve of first compound; for viability, T/C: stronger effect = lower value
From the text: Multicellular complex tumor spheroid response to RAS pathway inhibitors in combination with a targeted agents in patient-derived cell lines with oncogenic KRAS variants from multiple cancer types
A high-throughput screen of multi-cell type tumor spheroids was designed to identify active combinations of targeted small molecules and KRAS pathway inhibitors. Complex spheroids include a stromal component modeled by human endothelial cells (HUVEC) and fibroblasts modeled by human mesenchymal stem cells (MSCs). The concentration ranges selected for each drug and investigational agent were based upon clinically achievable concentrations if the clinical Cmax of the agent was known. * [This particular assayID is a followup dataset requested by reviewers of the manuscript. It is a test of the HUVEC and MSC without the tumor cells, and was conducted using different drug plates and a different plate layout.]
Compounds. The drugs and investigational agents: BI-3406 (NSC825286), BAY-293 (NSC824723), batoprotafib (TNO155; NSC825523), sotorasib (AMG 510; NSC818433), MRTX1257 (NSC819558), elimusertib (BAY 1895344; NSC800525), molibresib (GSK525762; NSC774829), temuterkib (LY3214996; NSC803410), venetoclax (NSC766270), alisertib (NSC759677), olaparib (NSC753686), talazoparib (NSC767125), erdafitinib (NSC781556), ipatasertib (NSC767898), cabozantinib (NSC761068), nintedanib (NSC756659), abemaciclib (NSC768073), docetaxel (NSC628503), trametinib (NSC758246), and sapanisertib (NSC764658) were obtained from the National Cancer Institute (NCI) Developmental Therapeutics Program Chemical Repository. The FDA-approved anticancer drug set is available from the Developmental Therapeutics Program. […] The stock solutions were prepared in dimethyl sulfoxide (DMSO, Sigma-Aldrich, St. Louis, MO, cat. D2650) at 800-fold the tested concentration and stored at -70 degrees C prior to their use. All drugs and investigational agents were tested over a range starting from a high concentration at or near the clinical Cmax and decreasing in half-log increments. If the clinical Cmax for an agent had not been determined, the highest concentration tested was 10 microM.
Cell Culture. All cells were maintained in an incubator at 37 degrees C and 5% CO2 with 95% humidity. The PDC lines were cultured according to standard operating procedures established by the NCI PDMR (https://pdmr.cancer.gov/sops/default.htm). Briefly, all PDCs were thawed and cultured in Matrigel-coated flasks prepared with a working solution of 1X Ham's F-12 nutrient mix, without supplementation (Invitrogen, Waltham, MA, cat. 11765054), 100 U/mL penicillin-streptomycin (Invitrogen, cat. 15140122), and 2.5% Matrigel (Corning Inc., Corning, NY, cat. 354248) for the first three passages. All PDCs were cultured in complete DMEM/F-12 media containing advanced DMEM/F-12 (Invitrogen, cat. 12634028), 4.9% defined fetal bovine serum, heat inactivated (HyClone Laboratories Inc., Logan, UT, cat. SH30070.03HI), 389 ng/mL hydrocortisone (Sigma-Aldrich, cat. H4001), 9.7 ng/mL human EGF recombinant protein (Invitrogen, cat. PHG0313), 23.4 microg/mL adenine (Sigma-Aldrich, cat. A2786), 97.3 U/mL penicillin-streptomycin (Invitrogen, cat. 15140122), 1.9 mM L-glutamine (Invitrogen, cat. 25030081), and 9.7 microM Y-27632 dihydrochloride (Tocris Bioscience, Bristol, United Kingdom, cat. 1254). The PDCs were cultured in complete DMEM/F12 media without 9.7 microM Y-27632 dihydrochloride for at least two passages prior to the screen. The established cell line HOP-62 was cultured in RPMI 1640 medium, HEPES (Invitrogen, cat. 22400105) with 10% defined fetal bovine serum (HyClone Laboratories Inc., cat. SH30070.03) and 2 mM L-glutamine (Invitrogen, cat. 25030081). The pooled donor HUVEC were cultured in endothelial cell growth medium 2 (PromoCell, Heidelberg, Germany, cat. C-22011) and the hMSC were cultured in mesenchymal stem cell growth medium 2 (PromoCell, cat. C-28009). […]

[1] = second compound 0.0316 µM, first compound 0.0316 µM
[2] = second compound 0.0316 µM, first compound 0.1 µM
[3] = second compound 0.0316 µM, first compound 0.316 µM
[4] = second compound 0.0316 µM, first compound 1 µM
[5] = second compound 0.0316 µM, first compound 3.16 µM
[6] = second compound 0.0316 µM, first compound 10 µM
[7] = second compound 0.1 µM, first compound 0.0316 µM
[8] = second compound 0.1 µM, first compound 0.1 µM
[9] = second compound 0.1 µM, first compound 0.316 µM
[10] = second compound 0.1 µM, first compound 1 µM
[11] = second compound 0.1 µM, first compound 3.16 µM
[12] = second compound 0.1 µM, first compound 10 µM
[13] = second compound 0.316 µM, first compound 0.0316 µM
[14] = second compound 0.316 µM, first compound 0.1 µM
[15] = second compound 0.316 µM, first compound 0.316 µM
[16] = second compound 0.316 µM, first compound 1 µM
[17] = second compound 0.316 µM, first compound 3.16 µM
[18] = second compound 0.316 µM, first compound 10 µM
[19] = second compound 1 µM, first compound 0.0316 µM
[20] = second compound 1 µM, first compound 0.1 µM
[21] = second compound 1 µM, first compound 0.316 µM
[22] = second compound 1 µM, first compound 1 µM
[23] = second compound 1 µM, first compound 3.16 µM
[24] = second compound 1 µM, first compound 10 µM
[25] = second compound 3.16 µM, first compound 0.0316 µM
[26] = second compound 3.16 µM, first compound 0.1 µM
[27] = second compound 3.16 µM, first compound 0.316 µM
[28] = second compound 3.16 µM, first compound 1 µM
[29] = second compound 3.16 µM, first compound 3.16 µM
[30] = second compound 3.16 µM, first compound 10 µM
[31] = second compound 10 µM, first compound 0.0316 µM
[32] = second compound 10 µM, first compound 0.1 µM
[33] = second compound 10 µM, first compound 0.316 µM
[34] = second compound 10 µM, first compound 1 µM
[35] = second compound 10 µM, first compound 3.16 µM
[36] = second compound 10 µM, first compound 10 µM

COC(=O)c1ccc2c(C(=Nc3ccc(N(C)C(=O)CN4CCN(C)CC4)cc3)c3ccccc3)c(O)[nH]c2c1 + C=CC(=O)N1CCN(c2nc(=O)n(-c3c(C)ccnc3C(C)C)c3nc(-c4c(O)cccc4F)c(F)cc23)C(C)C1
IC50 (second compound 0.0316 µM): 2.67 µM | IC50 (second compound 0.1 µM): 2.77 µM | IC50 (second compound 0.316 µM): 3.64 µM | IC50 (second compound 1 µM): 3.14 µM | IC50 (second compound 3.16 µM): 3.92 µM | IC50 (second compound 10 µM): 2.42 µM | viability, T/C [1]: 92.2% | viability, T/C [2]: 85.4% | viability, T/C [3]: 85.9% | viability, T/C [4]: 61.6% | viability, T/C [5]: 51.7% | viability, T/C [6]: 3.33% | viability, T/C [7]: 86.8% | viability, T/C [8]: 101% | viability, T/C [9]: 99.8% | viability, T/C [10]: 66% | viability, T/C [11]: 50.3% | viability, T/C [12]: 0.39% | viability, T/C [13]: 79.2% | viability, T/C [14]: 87.9% | viability, T/C [15]: 96.2% | viability, T/C [16]: 83.4% | viability, T/C [17]: 56.5% | viability, T/C [18]: 3.54% | viability, T/C [19]: 88.4% | viability, T/C [20]: 101% | viability, T/C [21]: 115% | viability, T/C [22]: 75% | viability, T/C [23]: 52.5% | viability, T/C [24]: 0.39% | viability, T/C [25]: 94.3% | viability, T/C [26]: 149% | viability, T/C [27]: 126% | viability, T/C [28]: 80.5% | viability, T/C [29]: 67.8% | viability, T/C [30]: 0.46% | viability, T/C [31]: 90.2% | viability, T/C [32]: 102% | viability, T/C [33]: 145% | viability, T/C [34]: 85.4% | viability, T/C [35]: 39.4% | viability, T/C [36]: 1.51%

O=C(c1cc(Cc2n[nH]c(=O)c3ccccc23)ccc1F)N1CCN(C(=O)C2CC2)CC1 + C=CC(=O)N1CCN(c2nc(=O)n(-c3c(C)ccnc3C(C)C)c3nc(-c4c(O)cccc4F)c(F)cc23)C(C)C1
IC50 (second compound 0.0316 µM): > 10 µM | IC50 (second compound 0.1 µM): > 10 µM | IC50 (second compound 0.316 µM): > 10 µM | IC50 (second compound 1 µM): > 10 µM | IC50 (second compound 3.16 µM): > 10 µM | IC50 (second compound 10 µM): > 10 µM | viability, T/C [1]: 104% | viability, T/C [2]: 109% | viability, T/C [3]: 125% | viability, T/C [4]: 85.1% | viability, T/C [5]: 95% | viability, T/C [6]: 104% | viability, T/C [7]: 114% | viability, T/C [8]: 107% | viability, T/C [9]: 95.3% | viability, T/C [10]: 107% | viability, T/C [11]: 133% | viability, T/C [12]: 99.2% | viability, T/C [13]: 112% | viability, T/C [14]: 122% | viability, T/C [15]: 98.2% | viability, T/C [16]: 114% | viability, T/C [17]: 115% | viability, T/C [18]: 105% | viability, T/C [19]: 128% | viability, T/C [20]: 104% | viability, T/C [21]: 124% | viability, T/C [22]: 120% | viability, T/C [23]: 126% | viability, T/C [24]: 118% | viability, T/C [25]: 148% | viability, T/C [26]: 118% | viability, T/C [27]: 146% | viability, T/C [28]: 137% | viability, T/C [29]: 116% | viability, T/C [30]: 125% | viability, T/C [31]: 127% | viability, T/C [32]: 140% | viability, T/C [33]: 145% | viability, T/C [34]: 108% | viability, T/C [35]: 126% | viability, T/C [36]: 120%
